From publication PMC11109155, “Cell-free biosynthesis and engineering of ribosomally synthesized lanthipeptides” (Nature Communications, 2024)

Key:
[1] = tested on: Staphylococcus aureus RN4220; assay: Agar diffusion assay (diameter of zone of inhibition); type: cell-based; details: for DZI, diameter of zone of inhibition: LB agar, 6 mm paper disks, 37 °C 16 h, peptides 1 mM (SalB & B-1: cell-free synthesized, purified mixture; SalB and SalB-1: produced in vivo, purified), Kan 50 μg/mL positive control, representative of n = 3; for Antimicrobial activity against Staphylococcus aureus RN4220 (in words): agar diffusion assay, in vivo and cell-free produced peptides, 1 mM
Excerpt: Fig. 2 In vitro expression, modification, and maturation of salivaricin B in UniBioCat. a The gene cluster (top) and catalytic steps (bottom) of salivaricin B biosynthesis. Dha, dehydroalanine; Dhb, dehydrobutyrine; Abu, α-aminobutyric acid. b Western-blot analysis of the cell-free expressed precursor peptide (left: SboA, 7.8 kDa) and modification enzymes [right: SboM (113 kDa) and SboT (83 kDa) are co-expressed]. Peptides/enzymes are labeled with the anti-His antibody. M, protein marker; T, total protein; S, soluble protein. Results were reproduced three times independently; representative data are shown. c MALDI-TOF-MS analysis of the precursor peptide (left: 6x His-tagged SboA, [M + H]^+ m/z = 7355) and modified precursor peptides (right: dehydrated 6x His-tagged SboA, [M-H2O + H]^+ m/z = 7337, [M-2H2O + H]^+ m/z = 7319, and [M−4H2O + H]^+ m/z = 7283). d MALDI-TOF-MS (left), LC-MS (middle), and MS/MS (right) analysis of matured salivaricin B. e MALDI-TOF-MS (left), LC-MS (middle), and MS/MS (right) analysis of the analog salivaricin B−1 with one additional amino acid alanine at the N-terminus. f Antimicrobial activity assay of salivaricin B (SalB) and salivaricin B-1 (SalB-1). “SalB & B-1” was cell-free synthesized and purified for the activity assay (note that the sample used was a mixture of SalB and B-1 with a concentration of 1 mM for the test). For in vivo produced SalB and SalB-1, 1 mM of each purified SalB and SalB-1 was used for the activity assay. NC, negative control; Kan, kanamycin (50 μg/mL) as a positive control; DZI, diameter of zone of inhibition (in mm). Data shown representative of three independent experiments (n = 3). Source data are provided as a Source Data file. TEXT PRINTED IN THE PICTURE: (f) Kan: DZI: 22 | (f) SalB & B-1 (UniBioCat): DZI: 7.5 | (f) SalB (in vivo): DZI: 7.5 | (f) SalB-1 (in vivo): DZI: 9.5
Two approaches were used for testing antimicrobial activity, including solid agar plate diffusion and liquid medium cultivation. In the diffusion assay, the overnight cultivated indicator strain S. aureus RN4220 was mixed with the melted LB agar medium (a starting OD600 of 0.05). The mixture was poured onto the plate and allowed to solidify at room temperature for 30 min. Then, sterile paper disks (diameter 6 mm) were placed on the surface of the agar plate and 1 mM of each peptide was added to the paper disk. The plates were incubated at 37 °C for 16 h, and the diameter of the zone of inhibition (DZI, in mm) was measured for comparison. In the second approach, the assay was performed in 96-well plates, and cell-free synthesized mature peptides were directly used without purification. For the samples of salivaricin B variants, 80 μL of each sample (diluted if necessary) was mixed with 120 μL of LB medium, containing each variant at a roughly final concentration of 6–7 μM and the indicator strain S. aureus RN4220 (a starting OD600 of 0.02). For the samples of uncharacterized (Lan 1 - Lan 10) and three known (lacticin 481, ruminococcin A, and nukacin ISK-1) lanthipeptides, 80 μL of the cell-free reaction mixture was added directly to the liquid cultivation without quantification. The 96-well plates were incubated at 37 °C and 150 rpm for 12 h. During the cultivation, OD600 values were measured every 2 h and ΔOD600 was calculated to compare the antimicrobial activity of tested samples. In all assays, kanamycin was used as a positive for comparison.

S. aureus RN4220 [2] = assay: Liquid medium cultivation in 96-well plates, growth inhibition as ΔOD600; type: cell-based, Staphylococcus aureus; details: peptides produced in vivo and purified, Supplementary Fig. 12 (50 μM, liquid) and Fig. 2f (1 mM, agar diffusion)
Excerpt: Fig. 3 Generation of salivaricin B mutants and their antimicrobial activity. a Representative MALDI-TOF-MS analyses of single-site mutagenesis at the position of Q6 or L20. b Representative MALDI-TOF-MS analyses of two-site mutagenesis at the positions of Q6 and L20. In (a) and (b), salivaricin B-1 based variants are the most abundant products in all analyses, which are indicated with the [M + H]^+ ions. c Quantification of salivaricin B mutants that are synthesized in UniBioCat reactions (see Supplementary Table 5 for the yield of each peptide variant). d Antimicrobial activity assay showing ΔOD600 profiles of S. aureus RN4220 growth treated with single-site (top) and two-site (bottom) mutants. […]
Two approaches were used for testing antimicrobial activity, including solid agar plate diffusion and liquid medium cultivation. […] The plates were incubated at 37 °C for 16 h, and the diameter of the zone of inhibition (DZI, in mm) was measured for comparison. […] For the samples of uncharacterized (Lan 1 - Lan 10) and three known (lacticin 481, ruminococcin A, and nukacin ISK-1) lanthipeptides, 80 μL of the cell-free reaction mixture was added directly to the liquid cultivation without quantification. […] During the cultivation, OD600 values were measured every 2 h and ΔOD600 was calculated to compare the antimicrobial activity of tested samples. […]

Bacillus subtilis = assay: MIC (broth microdilution) and IC50 determination; type: cell-based; details: LB, 37 °C, 130 rpm
Method: (§1) MIC values were determined by using a broth microdilution method. Overnight cultures of each indicator strain were diluted to 5 × 10^5 CFU mL^−1 using fresh LB medium and distributed into 96-well plates. Then, the cells were treated with twofold serial dilutions of the purified peptides (i.e., salivaricin B and variants). The total volume of each cultivation was 200 μL per well, consisting of 175 μL bacteria cells and 25 μL diluted peptides. The final concentrations of each peptide were set at 0.12, 0.25, 0.5, 1, 2, 4, 8, and 16 μM. The positive growth control wells only contained bacterial cells without addition of peptides. The plates were incubated with 130 rpm at 37 °C for B. subtilis and M. luteus and 30 °C for L. lactic. After incubation, the lowest peptide concentration, which inhibited 90% of the bacterial growth, was recorded as the MIC. The growth curves were used to determine IC50 values with GraphPad Prism (version 10.2.1, GraphPad Software).
(§2) Supplementary Table 6 Minimal inhibitory concentrations (MIC) and IC50 of salivaricin B and variants.
(§3) Bacillus subtilis Micrococcus luteus Lactococcus lactis
(§4) Peptides MIC IC50 MIC IC50 MIC IC50
(§5) (μM) (μM) (μM) (μM) (μM) (μM)
(§6) Source data are provided as a Source Data file.

Lactococcus lactis = assay: MIC (broth microdilution) and IC50 determination; type: cell-based; details: LB, 30 °C, 130 rpm
Method: as §1, §2, §3, §4, §5, §6

Micrococcus luteus = assay: MIC (broth microdilution) and IC50 determination; type: cell-based; details: LB, 37 °C, 130 rpm
Method: as §1, §2, §3, §4, §5, §6

[3] = read-out: IC50 of salivaricin B, previous report; cited from earlier work
Method: We next sought to test the antimicrobial activity of the mutated salivaricin B variants against the indicator strain S. aureus RN4220. To compare their activity, we first determined the concentrations of all peptide variants synthesized in UniBioCat reactions (Fig. 3c and Supplementary Table 5) and added an equal amount of each variant to the cell culture in 96-well plates. During the cultivation, OD600 values were measured every 2 h for a total of 12 h. […] Based on the ...

S. aureus RN4220 [4] = assay: MIC and IC50 assay with the indicator strain S. aureus RN4220; type: cell-based, Staphylococcus aureus; details: purified peptides produced in vivo
Method: We next sought to test the antimicrobial activity of the mutated salivaricin B variants against the indicator strain S. aureus RN4220. To compare their activity, we first determined the concentrations of all peptide variants synthesized in UniBioCat reactions (Fig. 3c and Supplementary Table 5) and added an equal amount of each variant to the cell culture in 96-well plates. During the cultivation, OD600 values were measured every 2 h for a total of 12 h. […] Based on the single-site mutagenesis and activity assay, we performed a second-round mutation with two-site mutagenesis at both Q6 and L20 using eight selected variants (the combination leads to 15 two-site mutated variants). All these new variants could be synthesized and detected by MALDI-TOF-MS (see Fig. 3b for representative analyses). […] To further verify their activity and compare to standard in vivo approaches, six variants including single- and two-site mutation were selected to be produced by in vivo expression/modification and in vitro digestion for maturation. […] Additionally, we evaluated the MIC and IC50 of four strong variants (see Supplementary Fig. 12 for SalB_Q6H, SalB_L20M, SalB_L20I-Q6H, and SalB_L20M-Q6H) against three other indicator strains, including Bacillus subtilis, Micrococcus luteus, and Lactococcus lactis.
MIC values were determined by using a broth microdilution method. […]

[5] = broth microdilution, 5 × 10^5 CFU mL^−1, purified peptides 0.12–16 μM twofold dilutions, lowest concentration inhibiting 90% of growth
[6] = from growth curves, GraphPad Prism, purified peptides 0.12–16 μM

In the case of `NC[C@H]1O[C@H](O[C@H]2[C@H](O)[C@@H](O[C@H]3O[C@H](CO)[C@@H](O)[C@H](N)[C@H]3O)[C@H](N)C[C@@H]2N)[C@H](O)[C@@H](O)[C@@H]1O` [Kan, kanamycin, reference compound], the “DZI, diameter of zone of inhibition” value [1] is reported as 22 mm.

With “AGGGVIQAbuIAlaHEAlaRMNAlaWQFLFDhbAlaAlaS (bicyclic or more) [Salivaricin B-1, salivaricin B-1, salivaricin B-like peptide with one additional amino acid alanine at the N-terminus]” the “DZI, diameter of zone of inhibition” value [1] was 9.5 mm, the “Antimicrobial activity against Staphylococcus aureus RN4220 (in words)” value [1] was “clear inhibitory effects on cell growth” and the “Antimicrobial activity compared with salivaricin B, purified peptides (in words)” value (S. aureus RN4220 [2]) was “even higher antimicrobial activity than salivaricin B”.

In the case of “GGGVIQAbuIAlaHEAlaRMNAlaWQFLFDhbAlaAlaS (bicyclic or more) [Salivaricin B, salivaricin B, class II lanthipeptide naturally produced by Streptococcus salivarius K12; wild type, made cell-free or in vivo]”, the “MIC, Bacillus subtilis” value (Bacillus subtilis; [5]) is reported as 4 µM, the IC50 (Bacillus subtilis; [6]) is reported as 1880 ± 10 nM and the “MIC, Lactococcus lactis” value (Lactococcus lactis; [5]) is reported as 4 µM. For the same molecule, the IC50 (Lactococcus lactis; [6]) was 1670 ± 80 nM, the “MIC, Micrococcus luteus” value (Micrococcus luteus; [5]) was 2 µM and the IC50 (Micrococcus luteus; [6]) was 1190 ± 50 nM. The IC50 [3] was 8640 nM, the IC50 (S. aureus RN4220 [4]) was > 8000 nM and the “DZI, diameter of zone of inhibition” value [1] was 7.5 mm. The “Antimicrobial activity against Staphylococcus aureus RN4220 (in words)” value [1] was “clear inhibitory effects on cell growth”.
